Results on five compounds are retold here after publication PMC8771711, “Synthesis of Lasalocid-Based Bioconjugates and Evaluation of Their Anticancer Activity” (ACS Omega, 2022).

One assay has as its system PC3 cells. In words: Annexin V-FITC/PI binding assay (flow cytometry) in PC3. In kind it is cell-based, human. The settings on record: IC50 concentration, 72 h. The protocol:
(§1) The SW480, SW620, PC3, and HaCaT cells were cultured and harvested under the conditions mentioned in the Section 4.5 and seeded in 12-well plates (1 × 10^5 cells per well). […] The apoptotic effect was performed using the Annexin V-FITC/propidium iodide (PI) apoptosis assay kit (Becton Dickinson, Pharmingen), according to the manufacturer’s instructions, and analyzed by flow cytometry (Becton Dickinson). The cells which were Annexin V-FITC-positive and PI-negative were identified as early apoptotic and both Annexin V-FITC- and PI-positive as late apoptotic or necrotic. The experiment was repeated three times.
(Flow cytometry measures light scatter and fluorescence of single cells or particles in a stream.)

For a further assay, the system named is IL-6 in PC3 cells. Kind of assay: Interleukin-6 assay (ELISA) in PC3. The format is cell-based, human. The settings on record: IC50 concentration, 72 h, ELISA of culture supernatant, p ≤ 0.001. The protocol: The level of interleukin-6 (IL-6) in SW480, SW620, and PC3 cell lines was measured by commercial human IL-6 ELISA kits Diaclon SAS (Besancon Cedex, France). […] The untreated cells were used as the control. The IL-6 level in a cell culture supernatant was measured using an enzyme-linked immunosorbent assay, in accordance with the manufacturer’s instruction. The experiment was repeated three times.
In general terms: In an ELISA, binding on a coated surface is turned into a signal by an enzyme label.

Assay [1] has as its system SW480, human primary colon cancer cell line. Kind of assay: MTT assay, cytotoxicity in SW480. The format is cell-based. Conditions: for IC50: Homo sapiens, SW480, MTT, 72 h, mean ± SD; for SW480 SI (selectivity index): SI = IC50 HaCaT / IC50 SW480. The protocol:
(§2) The human cell lines SW480 (primary colon cancer), SW620 (lymph node metastatic colon cancer from the same patient as primary cancer cells), PC3 (metastatic prostate cancer), and HaCaT (immortalized keratinocytes) were obtained from the American Type Culture Collection (ATCC, Rockville, USA). The SW480 and SW620 cells were grown in MEM (ThermoSci, USA), PC3 in RPMI 1640, and HaCaT in DMEM High Glucose (Biowest SAS, France) supplemented with 10% foetal bovine serum (FBS), HEPES (20 mM), and antibiotics (100 U mL^–1 of penicillin and 100 μg mL^–1 of streptomycin). The cells were incubated in a humidified incubator at 37 °C/5% CO2, until 80–90% confluence was reached.
(§3) The cell viability was assessed by using of MTT salt [3-(4,5-dimethylthiazol-2-yl)-2,5-diphenyltetrazolium bromide] converted by mitochondrial dehydrogenase, occurring in living cells. The cells were seeded in 96-well plates at a density of 1 × 10^4 cells per well and allowed to adhere for 24 h at 37 °C in a CO2 humidified incubator. Then, the medium was removed and a fresh medium with various concentrations of tested compounds (from 10 to 120 μM) was added. The untreated cells were used as the control.
(§4) After 72 h incubation, the medium was replaced with 200 μL per well of free serum medium containing 0.5 mg mL^–1 MTT and incubated for 4 h at 37 °C in a CO2 humidified incubator. Subsequently, the medium was removed and dimethyl sulfoxide with isopropanol (1:1) was added to dissolve the formazan crystals. The optical density was measured using a UVM 340 reader (ASYS Hitech GmbH, Austria) at a wavelength of 570 nm. The experiments were repeated three times. The cell viability was calculated as the percent of MTT reduced in treated cells versus control cells (untreated cells). The number of viable cells cultured without tested compounds was assumed as 100%. The decreased relative MTT level indicates decreased cell viability. The IC50 values were estimated using CompuSyn version 1.0.
On the technique in general: Tetrazolium assays rely on reduction of a dye to a coloured formazan, in cell work by metabolically active cells.

The subject of assay [2] is HaCaT, human immortalized keratinocyte cell line. Kind of assay: MTT assay, cytotoxicity in HaCaT. In kind it is cell-based. The settings on record: Homo sapiens, HaCaT, 72 h, mean ± SD, nontumor cells. The protocol: as §2, §3, §4
Another assay relates to SW480 cells. In words: Annexin V-FITC/PI binding assay (flow cytometry) in SW480. The format is cell-based, human. Conditions: IC50 concentration, 72 h. The protocol: as §1
Assay [3] has as its system PC3, human prostate cancer cell line. Kind of assay: MTT assay, cytotoxicity in PC3. The settings on record: for IC50: Homo sapiens, MTT, 72 h, mean ± SD; for PC3 SI (selectivity index): SI = IC50 HaCaT / IC50 PC3. The format is cell-based. The protocol:
as §2, §3, §4

The test system of assay [4] is SW620, human metastatic colon cancer cell line. Kind of assay: MTT assay, cytotoxicity in SW620. In kind it is cell-based. The settings on record: for IC50: Homo sapiens, SW-620, MTT, 72 h, mean ± SD; for SW620 SI (selectivity index): SI = IC50 HaCaT / IC50 SW620. The protocol: as §2, §3, §4
Assay [5] deals with ROS production in PC3, SW480, SW620 cells. In words: ROS detection, DCFH-DA and DHR-123 assay, cancer cell lines. The settings on record: IC50 concentration; DCF and rhodamine fluorescence intensity. In kind it is cell-based, human. The protocol: (§5) ROS generation was assessed by the spectrofluorometric method using the 2′,7′-dichlorodihydrofluorescein diacetate (DCFH-DA) or dihydrorhodamine 123 (DHR-123). The method is based on the ROS-dependent oxidation of the compounds to fluorescent dichlorofluorescein (DCF) or rhodamine-123, respectively.[61] PC3, SW480, SW620, and HaCaT were seeded on to 96-well plates (5 × 10^4 cells per well) and allowed to adhere for 24 h. Then, cells were rinsed with PBS and incubated with DCFH-DA (5 μM) or DHR-123 (1 μM) for 30 min at 37 °C in the dark. […] A sample with H2O2 (1.5 mM) was a positive control, and a sample without any reagent was a negative control. Maximum excitation and emission spectra for DCF were 492 and 527 nm, and those for rhodamine-123 were 500 and 536 nm, respectively. The generation of H2O2 was measured by Microplate Spectrofluorometer BioTek Synergy (BioTek Instruments, USA) and expressed as fluorescence intensity (FI). Values from three experiments performed in triplicate were analyzed.

Assay [6] relates to ROS production in HaCaT cells. Kind of assay: ROS detection, DCFH-DA and DHR-123 assay, HaCaT. Conditions: IC50 concentration. In kind it is cell-based, human. The protocol:
as §5

A further assay relates to HaCaT cells. Kind of assay: Annexin V-FITC/PI binding assay (flow cytometry) in HaCaT. In kind it is cell-based, human. The settings on record: IC50 concentration, 72 h; span stated for compounds 12 and 13 together. The protocol: as §1
Assay [7] relates to three cancer cell lines (SW480, SW620, PC3). In words: MTT assay, span over the three cancer cell lines. The format is cell-based, human. The settings on record: for IC50: Homo sapiens, MTT, 72 h; for SI, span over three cancer cell lines: SI = IC50 HaCaT / IC50 cancer cell line. The protocol: as §2, §3, §4

With `CC[C@@H](C(=O)[C@@H](C)[C@@H](O)[C@H](C)CCc1ccc(C)c(O)c1C(=O)OCc1cc(=O)c(O)co1)[C@H]1O[C@](CC)([C@H]2CC[C@](O)(CC)[C@H](C)O2)C[C@@H]1C` [Compound 7, LAS–Kojic Acid Conjugate], in the assay with PC3 cells, the “percentage of late apoptotic PC3 cells” value was determined as 28.24% and the “percentage of necrotic PC3 cells” value is on record as 26.00%. In the assay with IL-6 in PC3 cells, the “inhibition of IL-6 release in PC3 cells, fold more effectively compared to control” value is reported as approximately 1.2 fold. In addition, in assay [1], the IC50 (as a rule, the concentration that inhibits the measured activity by half) stood at 7.8 ± 0.09 µM and the “SW480 SI (selectivity index)” value is recorded as 0.8. In addition, the IC50 in [2] is 6.3 ± 0.1 µM. For the same compound, the “percentage of necrotic SW480 cells” value with SW480 cells came out at 22.39%. In assay [3], it took 3.8 ± 0.07 µM to reach half-maximal inhibition (IC50) and the “PC3 SI (selectivity index)” value amounted to 1.7. In addition, in assay [4], the midpoint of inhibition, the IC50, lay at 9.9 ± 0.08 µM and the “SW620 SI (selectivity index)” value worked out at 0.6.
For the compound `CC[C@@H](C(=O)[C@@H](C)[C@@H](O)[C@H](C)CCc1ccc(C)c(O)c1C(=O)OCCC[P+](c1ccccc1)(c1ccccc1)c1ccccc1)[C@H]1O[C@](CC)([C@H]2CC[C@](O)(CC)[C@H](C)O2)C[C@@H]1C` [Compound 13, LAS–TPP Conjugate], in the assay on PC3 cells, the “percentage of necrotic PC3 cells” value came out at 56.81%. In assay [5], the “ROS level in cancer cell lines (in words)” value is “significantly higher level of ROS”. Moreover, the “ROS level in HaCaT cells (in words)” value in assay [6] (DCF and rhodamine fluorescence intensity) is “significantly higher level of ROS”. The “time of treatment at which the amount of ROS in HaCaT cells was highest” value in assay [6] (measured after 1, 4, 12, 24 h) stood at 12 h. Moreover, in assay [1], the IC50 came to 1.4 ± 1.5 µM and the “SW480 SI (selectivity index)” value came out at 2.3. The compound also registered an IC50 in [2] of 3.2 ± 0.12 µM. For the same compound, in the assay with SW480 cells, the “percentage of late apoptotic SW480 cells” value turned out to be 20.15% and the “percentage of necrotic SW480 cells” value is listed as 24.82%. Besides, the “late apoptosis in HaCaT cells” value with HaCaT cells lay within 57.26 to 72.01%. In [3], the IC50 was determined as 1.8 ± 0.09 µM and the “PC3 SI (selectivity index)” value was 1.8. Moreover, in assay [4], the IC50 worked out at 2.3 ± 2.2 µM and the “SW620 SI (selectivity index)” value came out at 1.4.
In the case of `CC[C@@H](C(=O)[C@@H](C)[C@@H](O)[C@H](C)CCc1ccc(C)c(O)c1C(=O)OCCCCn1cc(F)c(=O)[nH]c1=O)[C@H]1O[C@](CC)([C@H]2CC[C@](O)(CC)[C@H](C)O2)C[C@@H]1C` [Compound 8, LAS–5-Fluorouracil Conjugate], in the assay on PC3 cells, the “percentage of late apoptotic PC3 cells” value is 33.16% and the “percentage of necrotic PC3 cells” value was 34.88%. Also, in assay [1], the IC50 was determined as 67 ± 1.2 µM and the “SW480 SI (selectivity index)” value is recorded as 0.5. The compound also showed an IC50 in assay [2] of 33 ± 3.4 µM. For the same compound, in [3], 3.6 ± 0.08 µM corresponded to half-maximal inhibition (IC50) and the “PC3 SI (selectivity index)” value came out at 9.2. In [4], the IC50 was determined as 14 ± 1 µM and the “SW620 SI (selectivity index)” value came out at 2.4.
Turning to `CC[C@@H](C(=O)[C@@H](C)[C@@H](O)[C@H](C)CCc1ccc(C)c(O)c1C(=O)O)[C@H]1O[C@](CC)([C@H]2CC[C@](O)(CC)[C@H](C)O2)C[C@@H]1C` [LAS, lasalocid], in assay [1], the IC50 is 7.2 ± 0.79 µM and the “SW480 SI (selectivity index)” value is on record as 2.2. In assay [2], this compound yielded an IC50 of 16 ± 1.9 µM. In assay [7], the IC50 lay in the range of 1.4 to 7.2 µM and the “SI, span over three cancer cell lines” value is reported as 2.2–11. In [3], the IC50 amounted to 1.4 ± 0.05 µM and the “PC3 SI (selectivity index)” value turned out to be 11. In assay [4], the 50% inhibitory concentration (IC50) came to 6.1 ± 0.28 µM and the “SW620 SI (selectivity index)” value amounted to 2.6.
Consider `Nc1ccn([C@@H]2O[C@H](CO)[C@@H](O)C2(F)F)c(=O)n1` [GEM, gemcitabine, reference compound], for which, in [1], the IC50 is 1.2 ± 0.05 µM and the “SW480 SI (selectivity index)” value is 1.3. This compound also showed an IC50 in assay [2] of 1.5 ± 0.05 µM. In addition, in [7], the IC50 lay in the range of 0.14 to 3.4 µM and the “SI, span over three cancer cell lines” value is listed as 0.4–11. In assay [3], the IC50 turned out to be 0.14 ± 0.02 µM and the “PC3 SI (selectivity index)” value is recorded as 11. Moreover, in assay [4], the IC50 came to 3.4 ± 0.65 µM and the “SW620 SI (selectivity index)” value turned out to be 0.4.
